According to ChEMBL document CHEMBL1201862, “PubChem BioAssay data set” (2004):
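Step 1: Grow cells in 96-well plates. Step 2: Expose to compound for 48 hours at 5 concentrations. Step 3: Interpolate endpoints linearly; if unreached, use highest concentration. GI50 = concentration required for 50% inhibition of growth.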 Activity calls are given as the source filed them. No stated cut-off is given here; in the data, active = GI50 up to about 1.1 µM and inactive = higher.

How the values were obtained:
Test in all cases: inhibition of tumour cell growth, NCI panel, 48 h
HT-29 = system: HT-29
UACC-257 = system: UACC-257
U-251 = system: U-251
TK-10 = system: TK-10
HCT-15 = system: HCT-15
NCI-H522 = system: NCI-H522
RXF 393 = system: RXF 393
UO-31 = system: UO-31
ACHN = system: ACHN
SF-295 = system: SF-295
SN12C = system: SN12C
M14 = system: M14
HCT-116 = system: HCT-116
NCI-H23 = system: NCI-H23
Malme-3M = system: Malme-3M
NCI-H226 = system: NCI-H226
HOP-62 = system: HOP-62
UACC-62 = system: UACC-62

Compound	GI50 (HT-29)	GI50 (UACC-257)	GI50 (U-251)	GI50 (TK-10)	GI50 (HCT-15)	GI50 (NCI-H522)	GI50 (RXF 393)	GI50 (UO-31)	GI50 (ACHN)	GI50 (SF-295)	GI50 (SN12C)	GI50 (M14)	GI50 (HCT-116)	GI50 (NCI-H23)	GI50 (Malme-3M)	GI50 (NCI-H226)	GI50 (HOP-62)	GI50 (UACC-62)
O=C(CC(C(=O)c1ccsc1)c1cccs1)c1cccs1 (configuration not stated)	82.2 µM (inactive)	51.4 µM (inactive)	> 100 µM (inactive)	> 100 µM (inactive)	65.5 µM	33.4 µM (inactive)	> 100 µM (inactive)	28.1 µM (inactive)	99.1 µM (inactive)	37.5 µM (inactive)	65.8 µM (inactive)	59.3 µM (inactive)	43.4 µM (inactive)	> 100 µM (inactive)	> 100 µM (inactive)	> 100 µM (inactive)	> 100 µM (inactive)	75.7 µM (inactive)
COc1cc(C(O)C(=O)c2nc3ccc([N+](=O)[O-])cc3nc2O)ccc1O (configuration not stated)	> 100 µM (inactive)	> 10 µM (inactive)	> 100 µM (inactive)	> 100 µM (inactive)	> 100 µM	18.8 µM (inactive)		> 100 µM (inactive)	54.2 µM (inactive)	> 100 µM (inactive)	> 100 µM (inactive)	> 100 µM (inactive)	> 100 µM (inactive)	> 100 µM (inactive)	> 100 µM (inactive)	> 100 µM (inactive)	> 100 µM (inactive)	73.1 µM (inactive)
NC1=NC(=O)C(CC(=O)Nc2ccc(Cl)cc2Cl)S1 (configuration not stated)	> 100 µM (inactive)	> 100 µM (inactive)	> 100 µM (inactive)	> 100 µM (inactive)	> 100 µM			> 100 µM (inactive)	> 100 µM (inactive)	> 100 µM (inactive)	> 100 µM (inactive)	> 100 µM (inactive)		> 100 µM (inactive)	> 100 µM (inactive)		> 100 µM (inactive)	> 100 µM (inactive)
COC(OC)C(C)CC(=O)N(C)C (configuration not stated)	> 100 µM (inactive)		> 100 µM (inactive)	> 100 µM (inactive)	> 100 µM			> 100 µM (inactive)	> 100 µM (inactive)	> 100 µM (inactive)	> 100 µM (inactive)	> 100 µM (inactive)	> 100 µM (inactive)			> 100 µM (inactive)	> 100 µM (inactive)	> 100 µM (inactive)
